# Measurements from patent publication US7041698B2, “Hepatitis C virus inhibitors” (Bristol-Myers Squibb Company, priority 2002, dated 2006).
# Assays:
# [1] = molecular target: T1, HCV NS3/4A protease complex (UniProt P27958, C1454S/C1711G, species not given); experiment: Recombinant HCV NS3/4A protease complex FRET peptide assay (strain not stated); format: biochemical; settings: HCV NS3/4A protease enzyme assay, read-out: IC50 range
# T1 construct: fused on or other part: Three-lysine solubilising tail at the C-terminus of NS4A
# [2] = test system: HCV replicon in Huh7 cells; experiment: HCV replicon cell-based assay; design: species or system HCV strain 1B; settings: Hepatitis C virus, Huh-7, 96 h, HCV replicon, 4 days, read-out: EC50 range
# Procedure, shortened: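 Huh7 cells carrying a genotype 1b subgenomic replicon (NS3-NS5B, neo) treated 4 days at 37° C with compound (0.5% DMSO final). NS3 protease activity read in lysates with 10 μM FRET peptide (340/490 nm, kinetic), giving EC50. Confirmed by Taqman qRT-PCR of HCV RNA and a Renilla luciferase replicon.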
SMILES,IC50 [1] [µM],EC50 [2] [µM]
"C=CC1C[C@]1(NC(=O)[C@@H]1C[C@@H](OC(=O)N2CCCC2)CN1C(=O)[C@@H](NC(=O)OC(C)(C)C)C(C)(C)C)C(=O)NS(=O)(=O)C1CC1 (stereo partly drawn) [Compound 13, BocNH-P3(t-BuGly)-P2(Hyp(O—CO(N,N-(pyrrolidino))))-P1(1R,2S VinylAcca)—CONHSO2Cyclopropane]",0.1 to 1,> 10
C=CC1C[C@]1(NC(=O)[C@@H]1C[C@@H](OC(=O)Nc2ccccc2C)CN1C(=O)[C@@H](NC(=O)OC(C)(C)C)C(C)(C)C)C(=O)NS(=O)(=O)C1CC1 (some centres unmarked) [Compound 57],0.1 to 1,1 to 10
"C=CC1C[C@]1(NC(=O)[C@@H]1C[C@@H](OC(=O)Nc2ccccc2C(=O)OCCCC)CN1C(=O)[C@@H](NC(=O)OC(C)(C)C)C(C)(C)C)C(=O)NS(=O)(=O)C1CC1 (stereo partly drawn) [Compound 64, BocNH-P3(t-BuGly)-P2(Hyp(O—CO(NH—(2-benzoic acid butyl ester))))-P1(1R,2S VinylAcca)—CONHSO2Cyclopropane]",< 0.1,0.1 to 1
"C=CC1C[C@]1(NC(=O)[C@@H]1C[C@@H](OC(=O)Nc2ccccc2Br)CN1C(=O)[C@@H](NC(=O)OC(C)(C)C)C(C)(C)C)C(=O)NS(=O)(=O)C1CC1 (stereo partly drawn) [Compound 33, BocNH-P3(t-BuGly)-P2(Hyp(O—CO(NH—(2-bromo-phenyl))))-P1(1R,2S VinylAcca)—CONHSO2Cyclopropane]",0.1 to 1,0.1 to 1
"C=CC1C[C@]1(NC(=O)[C@@H]1C[C@@H](OC(=O)Nc2cscc2C(=O)OC)CN1C(=O)[C@@H](NC(=O)OC(C)(C)C)C(C)(C)C)C(=O)NS(=O)(=O)C1CC1 (stereo partly drawn) [Compound 71, BocNH-P3(t-BuGly)-P2(Hyp(O—CO(NH-4-(thiophene-3-carboxylic acid methyl ester))))-P1(1R,2S VinylAcca)—CONHSO2Cyclopropane]",< 0.1,0.1 to 1
"C=CC1C[C@]1(NC(=O)[C@@H]1C[C@@H](OC(=O)Nc2ccccc2OCC)CN1C(=O)[C@@H](NC(=O)OC(C)(C)C)C(C)(C)C)C(=O)NS(=O)(=O)C1CC1 (stereo partly drawn) [Compound 56, BocNH-P3(t-BuGly)-P2(Hyp(O—CO(NH—(2-ethoxy-phenyl))))-P1(1R,2S VinylAcca)—CONHSO2Cyclopropane]",< 0.1,0.1 to 1
"C=CC1C[C@]1(NC(=O)[C@@H]1C[C@@H](OC(=O)Nc2cccc(OC)c2)CN1C(=O)[C@@H](NC(=O)OC(C)(C)C)C(C)(C)C)C(=O)NS(=O)(=O)C1CC1 (stereo partly drawn) [Compound 27, BocNH-P3(t-BuGly)-P2(Hyp(O—CO(NH—(3-methoxy-phenyl))))-P1(1R,2S VinylAcca)—CONHSO2Cyclopropane]",< 0.1,1 to 10
"C=CC1C[C@]1(NC(=O)[C@@H]1C[C@@H](OC(=O)Nc2cc(C)ccc2-n2nccn2)CN1C(=O)[C@@H](NC(=O)OC(C)(C)C)C(C)(C)C)C(=O)NS(=O)(=O)C1CC1 (stereo partly drawn) [Compound 97, BocNH-P3(t-BuGly)-P2(Hyp(O—CO(NH—(5-Methyl-2-[1,2,3]triazol-2-yl-phenyl))))-P1(1R,2S VinylAcca)—CONHSO2Cyclopropane]",< 0.1,< 0.1
"C=CC1C[C@]1(NC(=O)[C@@H]1C[C@@H](OC(=O)Nc2cc(F)ccc2-n2cccn2)CN1C(=O)[C@@H](NC(=O)OC(C)(C)C)C(C)(C)C)C(=O)NS(=O)(=O)C1CC1 (stereo partly drawn) [Compound 99, BocNH-P3(t-BuGly)-P2(Hyp(O—CO(NH—(5-Fluoro-2-pyrazol-1-yl-phenyl))))-P1(1R,2S VinylAcca)—CONHSO2Cyclopropane]",< 0.1,< 0.1
"C=CC1C[C@]1(NC(=O)[C@@H]1C[C@@H](OC(=O)NCc2cccc(F)c2)CN1C(=O)[C@@H](NC(=O)OC(C)(C)C)C(C)(C)C)C(=O)NS(=O)(=O)C1CC1 (stereo partly drawn) [Compound 24, BocNH-P3(t-BuGly)-P2(Hyp(O—CO(NH—(3-fluoro-benzyl))))-P1(1R,2S VinylAcca)—CONHSO2Cyclopropane]",0.1 to 1,> 10
